Measured values published in PubChem BioAssay AID1963422 (Molecular Pharmacology Branch, DTP, NCI, 2024).
Blank lines part the entries; values can stand above or below the compound they belong to.

Test system: 463943-066-T-J2-PDC complex spheroid growth
Test: Anticancer human tumor 463943-066-T-J2-PDC patient-derived colon adenocarcinoma cell line growth inhibition [Asc]
Conditions: for IC50: curve of first compound; for viability, T/C: stronger effect = lower value
How it was run: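 Complex solid-tumor spheroids incorporating human endothelial and mesenchymal stem cells received single agents or combinations over half-log dilution ranges anchored to clinical Cmax.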

[1] = second compound 0.0316 µM, first compound 0.0316 µM
[2] = second compound 0.0316 µM, first compound 0.1 µM
[3] = second compound 0.0316 µM, first compound 0.316 µM
[4] = second compound 0.0316 µM, first compound 1 µM
[5] = second compound 0.0316 µM, first compound 3.16 µM
[6] = second compound 0.0316 µM, first compound 10 µM
[7] = second compound 0.1 µM, first compound 0.0316 µM
[8] = second compound 0.1 µM, first compound 0.1 µM
[9] = second compound 0.1 µM, first compound 0.316 µM
[10] = second compound 0.1 µM, first compound 1 µM
[11] = second compound 0.1 µM, first compound 3.16 µM
[12] = second compound 0.1 µM, first compound 10 µM
[13] = second compound 0.316 µM, first compound 0.0316 µM
[14] = second compound 0.316 µM, first compound 0.1 µM
[15] = second compound 0.316 µM, first compound 0.316 µM
[16] = second compound 0.316 µM, first compound 1 µM
[17] = second compound 0.316 µM, first compound 3.16 µM
[18] = second compound 0.316 µM, first compound 10 µM
[19] = second compound 1 µM, first compound 0.0316 µM
[20] = second compound 1 µM, first compound 0.1 µM
[21] = second compound 1 µM, first compound 0.316 µM
[22] = second compound 1 µM, first compound 1 µM
[23] = second compound 1 µM, first compound 3.16 µM
[24] = second compound 1 µM, first compound 10 µM
[25] = second compound 3.16 µM, first compound 0.0316 µM
[26] = second compound 3.16 µM, first compound 0.1 µM
[27] = second compound 3.16 µM, first compound 0.316 µM
[28] = second compound 3.16 µM, first compound 1 µM
[29] = second compound 3.16 µM, first compound 3.16 µM
[30] = second compound 3.16 µM, first compound 10 µM
[31] = second compound 10 µM, first compound 0.0316 µM
[32] = second compound 10 µM, first compound 0.1 µM
[33] = second compound 10 µM, first compound 0.316 µM
[34] = second compound 10 µM, first compound 1 µM
[35] = second compound 10 µM, first compound 3.16 µM
[36] = second compound 10 µM, first compound 10 µM
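Note: compound exposure lasted 7 days.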
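Throughout, for viability, T/C: 100% = DMSO vehicle control wells.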

IC50 (second compound 0.0316 µM): 5.64 µM
IC50 (second compound 0.1 µM): 4.89 µM
IC50 (second compound 0.316 µM): 3.88 µM
IC50 (second compound 1 µM): 2.3 µM
IC50 (second compound 3.16 µM): 1.17 µM
IC50 (second compound 10 µM): < 0.0316 µM
SMILES: C=C(F)C(=O)N1CCN(c2nc(OCC3CCCN3C)nc3c2CCN(c2cccc4cccc(Cl)c24)C3)CC1CC#N (stereo unspecified) + Cc1c(S(C)(=O)=O)c(-c2cc(F)cc(N3CCN(c4ccc(NS(=O)(=O)c5ccc(NC(CCN6CCC(C(=O)OCCCP(=O)(O)O)CC6)CSc6ccccc6)c(S(=O)(=O)C(F)(F)F)c5)cc4)CC3)c2)c(-c2ccc(Cl)cc2)n1C(C)C
viability, T/C [1]: 92.4%
viability, T/C [2]: 95.5%
viability, T/C [3]: 95.9%
viability, T/C [4]: 106%
viability, T/C [5]: 93.1%
viability, T/C [6]: 7.35%
viability, T/C [7]: 98.2%
viability, T/C [8]: 93.5%
viability, T/C [9]: 90.8%
viability, T/C [10]: 98.4%
viability, T/C [11]: 79.5%
viability, T/C [12]: 1.47%
viability, T/C [13]: 92%
viability, T/C [14]: 85.7%
viability, T/C [15]: 87%
viability, T/C [16]: 85.7%
viability, T/C [17]: 60.8%
viability, T/C [18]: 0.26%
viability, T/C [19]: 80.3%
viability, T/C [20]: 80.4%
viability, T/C [21]: 72.5%
viability, T/C [22]: 72.4%
viability, T/C [23]: 41.8%
viability, T/C [24]: 0.2%
viability, T/C [25]: 62.4%
viability, T/C [26]: 58.4%
viability, T/C [27]: 56.4%
viability, T/C [28]: 54.5%
viability, T/C [29]: 23.1%
viability, T/C [30]: 0.22%
viability, T/C [31]: 46.1%
viability, T/C [32]: 47.7%
viability, T/C [33]: 47.4%
viability, T/C [34]: 41.7%
viability, T/C [35]: 16.4%
viability, T/C [36]: 0.26%

IC50 (second compound 0.0316 µM): > 10 µM
IC50 (second compound 0.1 µM): > 10 µM
IC50 (second compound 0.316 µM): > 10 µM
IC50 (second compound 1 µM): > 10 µM
IC50 (second compound 3.16 µM): > 10 µM
IC50 (second compound 10 µM): 7.14 µM
SMILES: C=CC(=O)N1CCN(c2nc(=O)n(-c3c(C)ccnc3C(C)C)c3nc(-c4c(O)cccc4F)c(F)cc23)C(C)C1 (stereo unspecified) + Cc1c(S(C)(=O)=O)c(-c2cc(F)cc(N3CCN(c4ccc(NS(=O)(=O)c5ccc(NC(CCN6CCC(C(=O)OCCCP(=O)(O)O)CC6)CSc6ccccc6)c(S(=O)(=O)C(F)(F)F)c5)cc4)CC3)c2)c(-c2ccc(Cl)cc2)n1C(C)C
viability, T/C [1]: 84.9%
viability, T/C [2]: 92.3%
viability, T/C [3]: 91%
viability, T/C [4]: 96.1%
viability, T/C [5]: 100%
viability, T/C [6]: 78.3%
viability, T/C [7]: 95%
viability, T/C [8]: 89.7%
viability, T/C [9]: 91.4%
viability, T/C [10]: 93.6%
viability, T/C [11]: 91.9%
viability, T/C [12]: 84.4%
viability, T/C [13]: 83.8%
viability, T/C [14]: 90%
viability, T/C [15]: 85.3%
viability, T/C [16]: 87.3%
viability, T/C [17]: 86.8%
viability, T/C [18]: 83%
viability, T/C [19]: 74%
viability, T/C [20]: 75.6%
viability, T/C [21]: 75.3%
viability, T/C [22]: 77%
viability, T/C [23]: 72%
viability, T/C [24]: 64.4%
viability, T/C [25]: 57.8%
viability, T/C [26]: 59.4%
viability, T/C [27]: 60.1%
viability, T/C [28]: 65%
viability, T/C [29]: 66%
viability, T/C [30]: 54.2%
viability, T/C [31]: 51.5%
viability, T/C [32]: 48.2%
viability, T/C [33]: 52.9%
viability, T/C [34]: 50.6%
viability, T/C [35]: 52.1%
viability, T/C [36]: 47.9%

IC50 (second compound 0.0316 µM): > 3 µM
IC50 (second compound 0.1 µM): > 3 µM
IC50 (second compound 0.316 µM): > 3 µM
IC50 (second compound 1 µM): > 3 µM
IC50 (second compound 3.16 µM): 0.14 µM
IC50 (second compound 10 µM): < 0.00949 µM
SMILES: CCN1C(C(=O)NC23CCC(C(=O)O)(CC2)CC3)C(c2cccc(Cl)c2F)C2(C(=O)Nc3cc(Cl)ccc32)C12CCCCC2 (stereo unspecified) + Cc1c(S(C)(=O)=O)c(-c2cc(F)cc(N3CCN(c4ccc(NS(=O)(=O)c5ccc(NC(CCN6CCC(C(=O)OCCCP(=O)(O)O)CC6)CSc6ccccc6)c(S(=O)(=O)C(F)(F)F)c5)cc4)CC3)c2)c(-c2ccc(Cl)cc2)n1C(C)C
viability, T/C (second compound 0.0316 µM, first compound 0.00949 µM): 90.4%
viability, T/C (second compound 0.0316 µM, first compound 0.03 µM): 92.3%
viability, T/C (second compound 0.0316 µM, first compound 0.0949 µM): 89.3%
viability, T/C (second compound 0.0316 µM, first compound 0.3 µM): 76.5%
viability, T/C (second compound 0.0316 µM, first compound 0.949 µM): 70.2%
viability, T/C (second compound 0.0316 µM, first compound 3 µM): 61.8%
viability, T/C (second compound 0.1 µM, first compound 0.00949 µM): 88.9%
viability, T/C (second compound 0.1 µM, first compound 0.03 µM): 83.2%
viability, T/C (second compound 0.1 µM, first compound 0.0949 µM): 85.9%
viability, T/C (second compound 0.1 µM, first compound 0.3 µM): 73.3%
viability, T/C (second compound 0.1 µM, first compound 0.949 µM): 71.1%
viability, T/C (second compound 0.1 µM, first compound 3 µM): 60.8%
viability, T/C (second compound 0.316 µM, first compound 0.00949 µM): 80.6%
viability, T/C (second compound 0.316 µM, first compound 0.03 µM): 92.2%
viability, T/C (second compound 0.316 µM, first compound 0.0949 µM): 77.6%
viability, T/C (second compound 0.316 µM, first compound 0.3 µM): 71.4%
viability, T/C (second compound 0.316 µM, first compound 0.949 µM): 64.7%
viability, T/C (second compound 0.316 µM, first compound 3 µM): 57.2%
viability, T/C (second compound 1 µM, first compound 0.00949 µM): 70.1%
viability, T/C (second compound 1 µM, first compound 0.03 µM): 70.8%
viability, T/C (second compound 1 µM, first compound 0.0949 µM): 62.9%
viability, T/C (second compound 1 µM, first compound 0.3 µM): 58.4%
viability, T/C (second compound 1 µM, first compound 0.949 µM): 62%
viability, T/C (second compound 1 µM, first compound 3 µM): 51.2%
viability, T/C (second compound 3.16 µM, first compound 0.00949 µM): 55.8%
viability, T/C (second compound 3.16 µM, first compound 0.03 µM): 54.5%
viability, T/C (second compound 3.16 µM, first compound 0.0949 µM): 49.3%
viability, T/C (second compound 3.16 µM, first compound 0.3 µM): 48.2%
viability, T/C (second compound 3.16 µM, first compound 0.949 µM): 45.5%
viability, T/C (second compound 3.16 µM, first compound 3 µM): 39.4%
viability, T/C (second compound 10 µM, first compound 0.00949 µM): 46.7%
viability, T/C (second compound 10 µM, first compound 0.03 µM): 43.7%
viability, T/C (second compound 10 µM, first compound 0.0949 µM): 39.8%
viability, T/C (second compound 10 µM, first compound 0.3 µM): 34.8%
viability, T/C (second compound 10 µM, first compound 0.949 µM): 61.4%
viability, T/C (second compound 10 µM, first compound 3 µM): 34.5%
